Drawing on ChEMBL document CHEMBL1152941, “Isocoumarin glucosides from the scale insect fungus Torrubiella tenuis BCC 12732” (J Nat Prod, 2009), this text covers Activity, MIC and IC50 for 10 molecules.

≈ marks a conversion by molar mass, not a printed value. Calls of active or inactive are those of the source. The calls are words filed in the database; no cut-off is given here.

One assay concerns KB. Briefly: Cytotoxicity against human KB cells by resazurin microplate assay. In kind it is functional, cell-based. In general terms: Alamar Blue is a resazurin reagent that responds to reducing activity.
For assay [1], the system named is Mycobacterium tuberculosis. The experiment in a line: Antitubercular activity against Mycobacterium tuberculosis H37Ra by green fluorescent protein microplate assay. In kind it is functional.
The test system of the next assay is Plasmodium falciparum. The experiment in a line: Antimalarial activity against Plasmodium falciparum K1 by microculture radioisotope technique. It counts as functional, organism-based.
A further assay concerns NCI-H187. Briefly: Cytotoxicity against human NCI-H187 cells by resazurin microplate assay. In kind it is functional, cell-based.
In the next assay the test system is Human alphaherpesvirus 1. Briefly: Antiviral activity against HSV1 by green fluorescent protein microplate assay. It counts as functional, organism-based.
For another assay, the system named is Vero. Briefly: Cytotoxicity against african green monkey Vero cells by green fluorescent protein microplate assay. It counts as cell-based. To be noted: Chlorocebus sabaeus.
The test system of the next assay is MCF7. The experiment in a line: Cytotoxicity against human MCF7 cells by resazurin microplate assay. It counts as functional, cell-based.
Setting [2] is: Human alphaherpesvirus 1, read-out: IC50.

What is called MIC is the lowest concentration found to suppress growth. Broadly, the IC50 is the concentration that inhibits the measured activity by half. As for `CO[C@H]1[C@H](O)[C@@H](O)[C@H](OCc2cc3cc(O)cc(O)c3c(=O)o2)O[C@@H]1CO`, the outcome in the assay on KB, in the assay on Plasmodium falciparum and in the assay on NCI-H187 was inactive. The MIC entry in assay [1] is “inactive”. Also, the IC50 entry in the assay with Human alphaherpesvirus 1 is on record as “Not Active”.

On to `Nc1nc2c(ncn2COCCO)c(=O)[nH]1` [ACYCLOVIR], for which the IC50 with Human alphaherpesvirus 1 (setting [2]) was found to be 6.86 µg/mL (≈ 30.5 µM).

As to `O=c1oc(CO)cc2cc(O)cc(O)c12`, in assay [1], 25 µg/mL (≈ 120 µM) was the least that counted as inhibitory (MIC). Further, the result in the assay with NCI-H187 was inactive. In the assay on Human alphaherpesvirus 1 (setting [2]), the IC50 was determined as 50 µg/mL (≈ 240 µM).

As for `Cc1c2ccncc2c(C)c2c1[nH]c1ccccc12` [ELLIPTECINE], the IC50 with Vero was found to be 1.16 µg/mL (≈ 4.71 µM).

With `COc1cccc2c1C(=O)c1c(O)c3c(c(O)c1C2=O)C[C@@](O)(C(=O)CO)C[C@@H]3O[C@H]1C[C@H](N)[C@H](O)[C@H](C)O1` [DOXORUBICIN], the results for the half-maximal inhibitory concentration (IC50) with KB, in the assay on MCF7 and in the assay on NCI-H187 were 0.144 µg/mL (≈ 0.265 µM), 0.899 µg/mL (≈ 1.65 µM) and 0.058 µg/mL (≈ 0.107 µM), respectively.

In assay [1], `NNC(=O)c1ccncc1` [ISONIAZID] displayed an MIC of 0.023 µg/mL (≈ 0.168 µM).

Consider `CO[C@H]1[C@H](O)[C@@H](O)[C@H](Oc2cc(O)c3c(=O)oc(CO)cc3c2)O[C@@H]1CO`, for which the outcome in the assay with KB, with Plasmodium falciparum, in the assay with MCF7 and in the assay on NCI-H187 was inactive. The MIC result in assay [1] is “inactive”. Further, in the assay with Human alphaherpesvirus 1, the IC50 result is given as “Not Active”.

Consider `C[C@H]1[C@@H](O)O[C@@H]2O[C@@]3(C)CC[C@H]4[C@H](C)CC[C@@H]1[C@@]24OO3` [ARTENIMOL], for which the IC50 in the assay on Plasmodium falciparum is 0.0011 µg/mL (≈ 0.00387 µM).

`CO[C@H]1[C@H](O)[C@@H](O)[C@H](Oc2cc(O)c3c(=O)oc(C)cc3c2)O[C@@H]1CO`: the outcome in the assay on KB, in the assay on Plasmodium falciparum and with NCI-H187 was inactive. Besides, the MIC entry in assay [1] is “inactive”. Further, the IC50 result with Human alphaherpesvirus 1 is “Not Active”.

Turning to `Cc1cc2cc(O)cc(O)c2c(=O)o1`, the outcome in the assay with KB, in the assay with Plasmodium falciparum and in the assay with NCI-H187 was inactive. Further, in assay [1], the MIC result was “inactive”. Also, in the assay on Human alphaherpesvirus 1, the 50% inhibitory concentration (IC50) entry is reported as “Not Active”.
